“Also recorded” adds a separate entry of the source.
Assays:
[1] = tested on: global protein synthesis in the hippocampus; test: SUnSET measurement of global protein synthesis in brain tissue after injection; assay type: in vivo, mouse
Description: Protein synthesis was measured by the SUnSET method. After pharmacological manipulation, mice were sacrificed by cervical dislocation, brains were removed, and the hippocampi were rapidly dissected, immersed in liquid nitrogen, and stored at −80° C. until further use. Hippocampi were homogenized using 20 strokes of a pre-chilled glass homogenizer with 600 μl of lysis buffer containing 50 mM Tris, pH 7.8, 240 mM KCl, 10 mM MgCl2, 250 mM D-sucrose, 2% Triton X-100, 20 μg/ml emetine, 5 mM DTT, 100 U/ml Rnasin (Promega), and protease inhibitor mixture without EDTA (Roche). Samples were centrifuged for 5 min at 16,100 g at 4° C. and supernatant was incubated with 100 g/ml puromycin for 10 min at 4° C. An equal volume of 2×SDS sample buffer (10% glycerol, 5% β-mercaptoethanol, 4% SDS, 120 mM Tris-HCl, pH 6.8) was added to the samples and then boiled for 10 min at 100° C. Protein concentrations were determined using the BCA protein assay (Thermo), and samples were stored at −20° C. until further use. Puromycin incorporation was detected by western blotting using 12D10 antibody for puromycin (1:1000, Millipore).

mice [2] = test: Forced swim test (FST); assay type: in vivo, mouse
Description: After receiving treatments mice were subjected to FST. Briefly, mice were introduced into a transparent glass beaker (26 cm×18 cm) containing 4 liters deep water at 24° C. and were video-recorded for 6 minutes. The last 4 min were scored for immobility. Total immobility time (in seconds) is shown in the results.

mice [3] = test: Novelty suppressed feeding (NSF) test; assay type: in vivo, mouse; conditions: C57BL/6 mice, ketamine injection
Description: Novelty Suppressed Feeding (NSF)
After receiving the treatments mice were subjected to NSF. Briefly, mice were food deprived for 14 h and then placed in a temporary home cage for 30 min. During the test, mice were placed in a square arena 50×50 cm with bright room light. A food pellet was placed in the center of an open field. Each trial was 10 min in duration. Animal behavior was recorded, and latency to feeding (s) was measured.

mice [4] = test: Tail suspension test (TST); assay type: in vivo, mouse; conditions: C57BL/6 mice, Tatcont then ketamine, test 24 hours later
Description: Custom made clear hollow cylinders (4 cm length, 1.2 cm inner diameter, 1 g) from polycarbonate tubing were placed around the tails of mice to prevent tail climbing behavior. Tape was adhered to the tails of mice on one end, and the other end of the tape was adhered to a custom designed chamber with a white background. Mice were video recorded for 6 minute and the entire 6 minute session was scored for immobility. Total immobility time (seconds) is shown in the results.

[5] = cited from earlier work

Compound: COc1ccc(C[C@H]2NC[C@H](O)[C@H]2OC(C)=O)cc1 [anisomycin]
- protein synthesis ([1]; anisomycin 120 mg/kg b.w.): blocked protein synthesis
- ketamine-induced protein synthesis ([1]; anisomycin 120 mg/kg b.w. with ketamine): blocked

Compound: CNC1(c2ccccc2Cl)CCCCC1=O (stereo not drawn) [ketamine]
- immobility time in the FST (mice [2]; C57BL/6 mice, Tatcont then ketamine, test 24 hours later): shorter immobility time
- immobility time in the forced swim test (mice [2]; C57BL/6 mice, ketamine IP (5 mg per kg b.w. in Example 1), short-term test): reduced the immobility time; also recorded: shorter immobility time
- immobility time in the FST (mice [2]; WT littermates, 30 minutes after ketamine): reduced the immobility time
- immobility time in FST (mice [2]; WT mice, 24 hours after ketamine injection): reduced immobility time
- immobility time in the FST (mice [2]; eEF2K-KO mice, 30 minutes after ketamine): no difference in immobility
- immobility time in FST (mice [2]; eEF2K-KO mice, 24 hours after injection): no difference
- immobility time in FST (mice [2]; ketamine 5 mg/kg b.w., FST 24 hours later, C57BL/6 mice): shorter immobility time
- immobility time in FST (mice [2]; ketamine 10 mg/kg b.w., FST 24 hours later, C57BL/6 mice): shorter immobility time
- latency to feeding in the novelty suppressed feeding test (mice [3]): reduced the latency to feeding
- immobility time in the TST (mice [4]): shorter immobility time
- persistence of antidepressant effect ([5]; human patients, single intravenous administration): persists for many hours to days
- reduction of depression in human patients ([5]; single intravenous administration): sufficient to reduce depression
- side effects of infusions in humans ([5]; single or repeated infusions, lasting a few minutes to hours): acute dissociative and psychotomimetic effects

Reference: patent publication US11376302B2, “Methods for treating depression and major depressive disorder” (priority 2017, dated 2022)
